# Results taken from patent publication US20170334899A1, “AMINO-SUBSTITUTED ISOTHIAZOLES” (Bayer Pharma Aktiengesellschaft, priority 2014, published 2017).
# Target: T1, catalytic domain of human Bub1 (amino acids 704-1085) (Homo sapiens, UniProt O43683)
# T1 construct: catalytic domain of human Bub1 (amino acids 704-1085); His6 (N); made in house; host or cells: insect cells (Hi5)
# Test: Bub1 kinase assay (TR-FRET)
# Type: biochemical
# Conditions: 10 μM ATP, avg, read-out: Bub1 avg (IC50 [mol/l])
# How it was run: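 Readout is the 665/620 nm TR-FRET ratio from anti-phosphoserine antibody, Eu-labelled anti-mouse IgG and streptavidin-XL665, scaled between no-enzyme and uninhibited controls. Reaction: 1 μM biotinylated peptide, 10 μM ATP, 60 min, 22 °C, after 15 min compound preincubation with His6-Bub1 (704-1085, insect-expressed, ~200 ng/ml).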
# T1 sequence (O43683 704-1085): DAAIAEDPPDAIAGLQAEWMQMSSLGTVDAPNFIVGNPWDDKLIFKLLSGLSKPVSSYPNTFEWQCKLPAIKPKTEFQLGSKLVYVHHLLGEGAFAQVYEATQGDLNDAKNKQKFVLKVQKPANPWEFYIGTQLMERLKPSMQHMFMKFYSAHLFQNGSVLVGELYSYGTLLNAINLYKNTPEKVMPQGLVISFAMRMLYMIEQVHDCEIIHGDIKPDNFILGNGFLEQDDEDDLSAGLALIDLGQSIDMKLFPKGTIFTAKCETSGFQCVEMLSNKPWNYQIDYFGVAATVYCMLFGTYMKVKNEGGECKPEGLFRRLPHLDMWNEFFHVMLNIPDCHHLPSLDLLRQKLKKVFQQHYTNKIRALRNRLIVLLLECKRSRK
row,IC50,Structure (SMILES)
1,> 20 µM,"Cc1nsc(Nc2cnc(C(F)(F)F)cn2)c1C(=O)Nc1ccc(F)c(O[C@@H]2CCN(CC(F)(F)F)C2)c1 [Example 413, N-(4-Fluoro-3-{[(3R)-1-(2,2,2-trifluoroethyl)pyrrolidin-3-yl]oxy}phenyl)-3-methyl-5-{[5-(trifluoromethyl)pyrazin-2-yl]amino}-1,2-thiazole-4-carboxamide]"
2,≥ 20 µM,"Cc1nsc(Nc2cnc3ccccc3n2)c1C(=O)Nc1cccc(C(=O)OC(C)(C)C)c1 [Example 49, tert-Butyl 3-({[3-methyl-5-(quinoxalin-2-ylamino)-1,2-thiazol-4-yl]carbonyl}amino)-benzoate]"
3,> 20 µM,"Cc1nsc(Nc2cnc(C(F)(F)F)cn2)c1C(=O)Nc1ccc(F)c(OC[C@H]2CCCN(CC(F)(F)F)C2)c1 [Example 419, N-(4-Fluoro-3-{[(3S)-1-(2,2,2-trifluoroethyl)piperidin-3-yl]methoxy}phenyl)-3-methyl-5-{[5-(trifluoromethyl)pyrazin-2-yl]amino}-1,2-thiazole-4-carboxamide]"
4,> 20 µM,"CCCN1C[C@H](F)[C@H](Oc2ccc(NC(=O)c3c(C)nsc3Nc3cnc(C(F)(F)F)cn3)cn2)C1 [Example 408, N-(6-{[(3R,4S)-4-Fluoro-1-propylpyrrolidin-3-yl]oxy}pyridin-3-yl)-3-methyl-5-{[5-(trifluoromethyl)pyrazin-2-yl]amino}-1,2-thiazole-4-carboxamide]"
5,≥ 20 µM,"Cc1nsc(Nc2cnc(C(F)(F)F)cn2)c1C(=O)Nc1ccc(OCCNC(=O)C(F)(F)F)nc1 [Example 425, 3-Methyl-N-(6-{2-[(trifluoroacetyl)amino]ethoxy}pyridin-3-yl)-5-{[5-(trifluoro-methyl)pyrazin-2-yl]amino}-1,2-thiazole-4-carboxamide]"
6,≥ 20 µM,"Cc1nsc(Nc2ccc(C#N)cn2)c1C(=O)Nc1ccc(OC2CCCN(CCF)C2)nc1 (stereo not shown) [Example 38, 5-[(5-Cyanopyridin-2-yl)amino]-N-(6-{[1-(2-fluoroethyl)piperidin-3-yl]oxy}pyridin-3-yl)-3-methyl-1,2-thiazole-4-carboxamide]"
7,> 20 µM,"Cc1nsc(Nc2cnc3ccccc3n2)c1C(=O)Nc1cccc(NC(=O)C(F)(F)F)c1 [Example 432, 3-Methyl-5-(quinoxalin-2-ylamino)-N-{3-[(trifluoroacetyl)amino]phenyl}-1,2-thiazole-4-carboxamide]"
8,≥ 20 µM,"COCCOc1ccc(NC(=O)c2c(C)nsc2Nc2nc3c(C(F)(F)F)cccc3s2)cc1F [Example 1, N-[3-Fluoro-4-(2-methoxyethoxy)phenyl]-3-methyl-5-{[4-(trifluoromethyl)-1,3-benzothiazol-2-yl]amino}-1,2-thiazole-4-carboxamide]"
9,≥ 20 µM,"COC(=O)c1cccc(NC(=O)c2c(C)nsc2Nc2cnc3ccccc3n2)c1 [Example 50, Methyl 3-({[3-methyl-5-(quinoxalin-2-ylamino)-1,2-thiazol-4-yl]carbonyl}amino)-benzoate]"
10,≥ 20 µM,"Cc1nsc(Nc2cnc(C(F)(F)F)cn2)c1C(=O)Nc1ccc(CCC2CCN(CCC(F)(F)F)CC2)nc1 [Example 420, 3-Methyl-5-{[5-(trifluoromethyl)pyrazin-2-yl]amino}-N-(6-{2-[1-(3,3,3-trifluoro-propyl)piperidin-4-yl]ethyl}pyridin-3-yl)-1,2-thiazole-4-carboxamide]"
11,> 20 µM,"Cc1nsc(Nc2cnc(C(F)(F)F)cn2)c1C(=O)Nc1ccc(F)c(O[C@@H]2CCN(CCC(F)(F)F)C2)c1 [Example 414, N-(4-Fluoro-3-{[(3R)-1-(3,3,3-trifluoropropyl)pyrrolidin-3-yl]oxy}phenyl)-3-methyl-5-{[5-(trifluoromethyl)pyrazin-2-yl]amino}-1,2-thiazole-4-carboxamide]"
12,> 20 µM,"Cc1nsc(Nc2ccc(C#N)cn2)c1C(=O)Nc1ccc(Nc2ccc(F)c(F)c2)nc1 [Example 433, 5-[(5-Cyanopyridin-2-yl)amino]-N-{6-[(3,4-difluorophenyl)amino]pyridin-3-yl}-3-methyl-1,2-thiazole-4-carboxamide]"
13,> 20 µM,"Cc1nsc(Nc2cncc(C(F)(F)F)n2)c1C(=O)Nc1ccc(OCCN(C)C(=O)OC(C)(C)C)nc1 [Example 430, tert-Butyl methyl{2-[(5-{[(3-methyl-5-{[6-(trifluoromethyl)pyrazin-2-yl]amino}-1,2-thiazol-4-yl)carbonyl]amino}pyridin-2-yl)oxy]ethyl}carbannate]"
14,≥ 20 µM,"Cc1nsc(Nc2cnc3ccccc3n2)c1C(=O)Nc1cccc(C(=O)N2CCN(C(=O)OC(C)(C)C)CC2)c1 [Example 55, tert-Butyl 4-[3-({[3-methyl-5-(quinoxalin-2-ylamino)-1,2-thiazol-4-yl]carbonyl}amino)-benzoyl]piperazine-1-carboxylate]"
15,> 20 µM,"Cc1nsc(Nc2cnc(C(F)(F)F)cn2)c1C(=O)Nc1ccc(F)c(OC[C@H]2CCCN(CCC(F)(F)F)C2)c1 [Example 418, N-(4-Fluoro-3-{[(3S)-1-(3,3,3-trifluoropropyl)piperidin-3-yl]methoxy}phenyl)-3-methyl-5-{[5-(trifluoromethyl)pyrazin-2-yl]amino}-1,2-thiazole-4-carboxamide]"
16,> 20 µM,"Cc1nsc(Nc2cnc(C(F)(F)F)cn2)c1C(=O)Nc1ccc(F)c(O[C@@H]2CCN(CC(F)F)C2)c1 [Example 412, N-(3-{[(3R)-1-(2,2-Difluoroethyl)pyrrolidin-3-yl]oxy}-4-fluorophenyl)-3-methyl-5-{[5-(trifluoromethyl)pyrazin-2-yl]amino}-1,2-thiazole-4-carboxamide]"
17,> 20 µM,"Cc1nsc(Nc2cnc(C(F)(F)F)cn2)c1C(=O)Nc1ccc(OCCN(C)C(=O)OC(C)(C)C)nc1 [Example 429, tert-Butyl methyl{2-[(5-{[(3-methyl-5-{[5-(trifluoromethyl)pyrazin-2-yl]amino}-1,2-thiazol-4-yl)carbonyl]amino}pyridin-2-yl)oxy]ethyl}carbannate]"
18,9 µM,"Cc1nsc(Nc2cnc3ccccc3n2)c1C(=O)Nc1cccc(C(=O)NC(C)(C)C)c1 [Example 53, N-[3-(tert-Butylcarbamoyl)-phenyl]-3-methyl-5-(quinoxalin-2-ylamino)-1,2-thiazole-4-carboxamide]"
19,≥ 20 µM,"Cc1nsc(Nc2cc(C#N)ccn2)c1C(=O)Nc1ccc(OCCCNC(=O)OC(C)(C)C)nc1 [Example 43, tert-Butyl [3-({5-[({5-[(4-cyanopyridin-2-yl)amino]-3-methyl-1,2-thiazol-4-yl}-carbonyl)amino]pyridin-2-yl}oxy)propyl]carbamate]"
20,≥ 20 µM,"COCCOc1ccc(NC(=O)c2c(C)nsc2Nc2nc3c(C(F)(F)F)cccc3s2)cn1 [Example 3, N-[6-(2-Methoxyethoxy)pyridin-3-yl]-3-methyl-5-{[4-(trifluoromethyl)-1,3-benzo-thiazol-2-yl]amino}-1,2-thiazole-4-carboxamide]"
21,> 20 µM,"CCCN1CCC(COc2ccc(NC(=O)c3c(C)nsc3Nc3cnc(C(F)(F)F)cn3)cn2)C(F)(F)C1 (stereo not shown) [Example 394, N-{6-[(3,3-difluoro-1-propylpiperidin-4-yl)methoxy]pyridin-3-yl}-3-methyl-5-{[5-(trifluoromethyl)pyrazin-2-yl]amino}-1,2-thiazole-4-carboxamide]"
22,≥ 20 µM,"Cc1nsc(Nc2ccc(C#N)cn2)c1C(=O)Nc1ccc(OC2CCCN(CC(F)(F)F)C2)nc1 (stereo not shown) [Example 40, 5-[(5-Cyanopyridin-2-yl)amino]-3-methyl-N-(6-{[1-(2,2,2-trifluoroethyl)piperidin-3-yl]oxy}pyridin-3-yl)-1,2-thiazole-4-carboxamide]"
